# Results: PubChem BioAssay (NCI)
#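 96-well plates; 48 h exposure; 5 concentrations. Endpoints by linear interpolation between flanking doses. Not reached: highest tested concentration assigned. At the GI50, growth is halved. TGI marks complete inhibition of growth.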
# What was measured:
# Experiment in all cases: DTP human tumour cell line panel, 48 h
# 786-0 renal = tested on: 786-0 renal
# A498 renal = tested on: A498 renal
# A549 NSCLC = tested on: A549 NSCLC
# ACHN renal = tested on: ACHN renal
# BT-549 breast = tested on: BT-549 breast
# CAKI-1 renal = tested on: CAKI-1 renal
# CCRF-CEM leukemia = tested on: CCRF-CEM leukemia
# COLO 205 colon = tested on: COLO 205 colon
# DU-145 prostate = tested on: DU-145 prostate
# EKVX NSCLC = tested on: EKVX NSCLC
# HCC-2998 colon = tested on: HCC-2998 colon
# HCT-116 colon = tested on: HCT-116 colon
# HCT-15 colon = tested on: HCT-15 colon
# HL-60(TB) leukemia = tested on: HL-60(TB) leukemia
# HOP-62 NSCLC = tested on: HOP-62 NSCLC
# HOP-92 NSCLC = tested on: HOP-92 NSCLC
# HS 578T breast = tested on: HS 578T breast
# HT29 colon = tested on: HT29 colon
# IGROV1 ovarian = tested on: IGROV1 ovarian
# K-562 leukemia = tested on: K-562 leukemia
# KM12 colon = tested on: KM12 colon
# LOX IMVI melanoma = tested on: LOX IMVI melanoma
# M14 melanoma = tested on: M14 melanoma
# MALME-3M melanoma = tested on: MALME-3M melanoma
# MCF7 breast = tested on: MCF7 breast
# MDA-MB-231 breast = tested on: MDA-MB-231 breast
# MDA-MB-435 = tested on: MDA-MB-435
# MDA-MB-468 breast = tested on: MDA-MB-468 breast
# MOLT-4 leukemia = tested on: MOLT-4 leukemia
# NCI-H226 lung = tested on: NCI-H226 lung
# NCI-H23 lung = tested on: NCI-H23 lung
# NCI-H460 lung = tested on: NCI-H460 lung
# NCI-H522 lung = tested on: NCI-H522 lung
# NCI/ADR-RES ovarian = tested on: NCI/ADR-RES ovarian
# OVCAR-3 ovarian = tested on: OVCAR-3 ovarian
# OVCAR-4 ovarian = tested on: OVCAR-4 ovarian
# OVCAR-5 ovarian = tested on: OVCAR-5 ovarian
# OVCAR-8 ovarian = tested on: OVCAR-8 ovarian
# PC-3 prostate = tested on: PC-3 prostate
# RPMI-8226 leukemia = tested on: RPMI-8226 leukemia
# RXF 393 renal = tested on: RXF 393 renal
# SF-268 CNS = tested on: SF-268 CNS
# SF-295 CNS = tested on: SF-295 CNS
# SF-539 CNS = tested on: SF-539 CNS
# SK-MEL-2 melanoma = tested on: SK-MEL-2 melanoma
# SK-MEL-28 melanoma = tested on: SK-MEL-28 melanoma
# SK-MEL-5 melanoma = tested on: SK-MEL-5 melanoma
# SK-OV-3 ovarian = tested on: SK-OV-3 ovarian
# SN12C renal = tested on: SN12C renal
# SNB-19 CNS = tested on: SNB-19 CNS
# SNB-75 CNS = tested on: SNB-75 CNS
# SR leukemia = tested on: SR leukemia
# SW-620 colon = tested on: SW-620 colon
# T-47D breast = tested on: T-47D breast
# TK-10 renal = tested on: TK-10 renal
# U251 CNS = tested on: U251 CNS
# UACC-257 melanoma = tested on: UACC-257 melanoma
# UACC-62 melanoma = tested on: UACC-62 melanoma
# UO-31 renal = tested on: UO-31 renal
smiles,measurement,setting,value
NS(=O)(=O)c1ccc(N2N=C(c3ccc(NC(=O)Nc4ccccc4)cc3)CC2c2ccc(Br)cc2)cc1 (configuration not stated),GI50,786-0 renal,2.95 µM
same,TGI,786-0 renal,10.1 µM
same,GI50,A498 renal,1.98 µM
same,TGI,A498 renal,4.99 µM
same,GI50,A549 NSCLC,3.08 µM
same,TGI,A549 NSCLC,11.3 µM
same,GI50,ACHN renal,2.88 µM
same,TGI,ACHN renal,8.93 µM
same,GI50,BT-549 breast,2.03 µM
same,TGI,BT-549 breast,4.22 µM
same,GI50,CAKI-1 renal,2.64 µM
same,TGI,CAKI-1 renal,8.44 µM
same,GI50,CCRF-CEM leukemia,2.34 µM
same,TGI,CCRF-CEM leukemia,5.95 µM
same,GI50,COLO 205 colon,1.79 µM
same,TGI,COLO 205 colon,3.39 µM
same,GI50,DU-145 prostate,2.87 µM
same,TGI,DU-145 prostate,8.67 µM
same,GI50,EKVX NSCLC,3.19 µM
same,TGI,EKVX NSCLC,13.6 µM
same,GI50,HCC-2998 colon,1.6 µM
same,TGI,HCC-2998 colon,3.06 µM
same,GI50,HCT-116 colon,1.75 µM
same,TGI,HCT-116 colon,3.56 µM
same,GI50,HCT-15 colon,2.58 µM
same,TGI,HCT-15 colon,10.1 µM
same,GI50,HL-60(TB) leukemia,2.12 µM
same,TGI,HL-60(TB) leukemia,5.59 µM
same,GI50,HOP-62 NSCLC,2.01 µM
same,TGI,HOP-62 NSCLC,4.78 µM
same,GI50,HOP-92 NSCLC,1.98 µM
same,TGI,HOP-92 NSCLC,5.24 µM
same,GI50,HS 578T breast,2.52 µM
same,TGI,HS 578T breast,7.86 µM
same,GI50,HT29 colon,1.92 µM
same,TGI,HT29 colon,4.53 µM
same,GI50,IGROV1 ovarian,2.86 µM
same,TGI,IGROV1 ovarian,10.6 µM
same,GI50,K-562 leukemia,3.16 µM
same,TGI,K-562 leukemia,> 100 µM
same,GI50,KM12 colon,2.62 µM
same,TGI,KM12 colon,6.92 µM
same,GI50,LOX IMVI melanoma,1.73 µM
same,TGI,LOX IMVI melanoma,3.12 µM
same,GI50,M14 melanoma,2.11 µM
same,TGI,M14 melanoma,4.5 µM
same,GI50,MALME-3M melanoma,2.15 µM
same,TGI,MALME-3M melanoma,5.76 µM
same,GI50,MCF7 breast,2.6 µM
same,TGI,MCF7 breast,10.2 µM
same,GI50,MDA-MB-231 breast,1.93 µM
same,TGI,MDA-MB-231 breast,4.03 µM
same,GI50,MDA-MB-435,2.02 µM
same,TGI,MDA-MB-435,7.47 µM
same,GI50,MDA-MB-468 breast,2.01 µM
same,TGI,MDA-MB-468 breast,5.38 µM
same,GI50,MOLT-4 leukemia,2.66 µM
same,TGI,MOLT-4 leukemia,11.4 µM
same,GI50,NCI-H226 lung,2.34 µM
same,TGI,NCI-H226 lung,6.76 µM
same,GI50,NCI-H23 lung,1.85 µM
same,TGI,NCI-H23 lung,3.73 µM
same,GI50,NCI-H460 lung,1.92 µM
same,TGI,NCI-H460 lung,4.25 µM
same,GI50,NCI-H522 lung,2.67 µM
same,TGI,NCI-H522 lung,8.23 µM
same,GI50,NCI/ADR-RES ovarian,1.91 µM
same,TGI,NCI/ADR-RES ovarian,4 µM
same,GI50,OVCAR-3 ovarian,1.86 µM
same,TGI,OVCAR-3 ovarian,4.34 µM
same,GI50,OVCAR-4 ovarian,2.55 µM
same,TGI,OVCAR-4 ovarian,10.5 µM
same,GI50,OVCAR-5 ovarian,2.14 µM
same,TGI,OVCAR-5 ovarian,5.4 µM
same,GI50,OVCAR-8 ovarian,3.55 µM
same,TGI,OVCAR-8 ovarian,16.1 µM
same,GI50,PC-3 prostate,2.73 µM
same,TGI,PC-3 prostate,9.76 µM
same,GI50,RPMI-8226 leukemia,2.11 µM
same,TGI,RPMI-8226 leukemia,5.26 µM
same,GI50,RXF 393 renal,1.82 µM
same,TGI,RXF 393 renal,4.96 µM
same,GI50,SF-268 CNS,2.63 µM
same,TGI,SF-268 CNS,11.2 µM
same,GI50,SF-295 CNS,3.18 µM
same,TGI,SF-295 CNS,12.7 µM
same,GI50,SF-539 CNS,2.06 µM
same,TGI,SF-539 CNS,4.63 µM
same,GI50,SK-MEL-2 melanoma,5.38 µM
same,TGI,SK-MEL-2 melanoma,19.9 µM
same,GI50,SK-MEL-28 melanoma,2.66 µM
same,TGI,SK-MEL-28 melanoma,7.26 µM
same,GI50,SK-MEL-5 melanoma,1.77 µM
same,TGI,SK-MEL-5 melanoma,3.39 µM
same,GI50,SK-OV-3 ovarian,3.48 µM
same,TGI,SK-OV-3 ovarian,14.2 µM
same,GI50,SN12C renal,1.68 µM
same,TGI,SN12C renal,3.15 µM
same,GI50,SNB-19 CNS,4.11 µM
same,TGI,SNB-19 CNS,15.7 µM
same,GI50,SNB-75 CNS,1.76 µM
same,TGI,SNB-75 CNS,11.7 µM
same,GI50,SR leukemia,2.71 µM
same,TGI,SR leukemia,9.08 µM
same,GI50,SW-620 colon,2.5 µM
same,GI50,T-47D breast,2.87 µM
same,TGI,T-47D breast,11.6 µM
same,GI50,TK-10 renal,3.13 µM
same,TGI,TK-10 renal,12.4 µM
same,GI50,U251 CNS,2.72 µM
same,TGI,U251 CNS,8.65 µM
same,GI50,UACC-257 melanoma,5.32 µM
same,TGI,UACC-257 melanoma,20.4 µM
same,GI50,UACC-62 melanoma,1.64 µM
same,TGI,UACC-62 melanoma,3.23 µM
same,GI50,UO-31 renal,2.57 µM
same,TGI,UO-31 renal,10.7 µM
